Values quoted from earlier work in patent US20040002663A1, “Method and system for use in detecting a cancerous and precancerous pathology” (priority 2002, published 2004).
Where two headings read alike, the source gives them in different places.

Legend:
[1] = tested on: patients with orthostatic hypotension of various etiologies
[2] = tested on: patients with orthostatic hypotension; details: for increase in standing one-minute systolic pressure: at one hour
[3] = tested on: patients with orthostatic hypotension; details: for increase in one-minute standing systolic blood pressure: 10 mg at 0, 3, 6 hours
[4] = tested on: patients with orthostatic hypotension
[5] = tested on: alpha-adrenergic receptors of the arteriolar and venous vasculature; details: active metabolite of midodrine
[6] = tested on: cardiac beta-adrenergic receptors
[7] = 10 mg t.i.d., printed as a pair (systolic/diastolic)

SMILES: COc1ccc(OC)c(C(O)CNC(=O)CN)c1.Cl (racemic) [midodrine, (±)−2-amino-N-(β-hydroxy-2,5-dimethoxyphenethyl)acetamide monohydrochloride]
- standing, sitting, and supine systolic and diastolic blood pressure [1]: rise
- time the increase in standing systolic pressure was sustained in part ([2]; after 10 mg): two
- time the increase in standing systolic pressure was sustained in part ([2]; after 20 mg): four
- increase in standing one-minute systolic pressure ([2]; single 10 mg dose): about 30 mmHg
- increase in standing one-minute systolic pressure ([2]; single 20 mg dose): about 30 mmHg
- increase in one-minute standing systolic blood pressure ([3]; one hour after each dose): about 15 mmHg
- increase in one-minute standing systolic blood pressure ([3]; three hours after each dose): about 12 mmHg
- three-minute standing pressures ([3]; 10 mg, one and 3 hours after dosing): increased also at one, but not 3, hours after dosing
- standing time ([3]; 10 mg, one and three hours after dosing): increases in standing time seen intermittently one hour after dosing, but not at three hours
- higher one-minute standing systolic pressure ([4]; 10 mg t.i.d., one hour after dosing, 170 patients, vs placebo): about 20 mmHg
- sitting blood pressure rise [4, 7]: 20/10
- supine blood pressure rise [4, 7]: 16/8
- dizziness/light headedness/unsteadiness scores and global evaluations ([4]; after week one): small improvements

SMILES: COc1ccc(OC)c(C(O)CN)c1 (stereo not drawn) [Desglymidodrine]
- action at alpha-adrenergic receptors [5]: alph1-agonist
- stimulation of cardiac beta-adrenergic receptors [6]: does not stimulate
